According to patent US7355055B2, “Compounds for treatment of lipase-mediated diseases” (Reliance Life Sciences Pvt. Ltd., priority 2005, dated 2008):
Structures can show the parent of a compound that is named as a salt.

Experiments:
[1] = target: T1, Pancreatic Lipase (Sus scrofa, UniProt P00591); test: Pancreatic lipase inhibition assay (p-nitro phenol palmitate substrate, 96-well); format: biochemical; details: for IC50: dose range 6.25 μM-200 μM, interpolated by linear regression; for inhibition at 100 µM / inhibition at 200 µM: pancreatic lipase, 37° C., OD 405 nm; for inhibition at 100 µM: compound 100 μM; for inhibition at 200 µM: compound 200 μM
T1 construct: purchased Sigma L-3126
T1 sequence (P00591 1-450): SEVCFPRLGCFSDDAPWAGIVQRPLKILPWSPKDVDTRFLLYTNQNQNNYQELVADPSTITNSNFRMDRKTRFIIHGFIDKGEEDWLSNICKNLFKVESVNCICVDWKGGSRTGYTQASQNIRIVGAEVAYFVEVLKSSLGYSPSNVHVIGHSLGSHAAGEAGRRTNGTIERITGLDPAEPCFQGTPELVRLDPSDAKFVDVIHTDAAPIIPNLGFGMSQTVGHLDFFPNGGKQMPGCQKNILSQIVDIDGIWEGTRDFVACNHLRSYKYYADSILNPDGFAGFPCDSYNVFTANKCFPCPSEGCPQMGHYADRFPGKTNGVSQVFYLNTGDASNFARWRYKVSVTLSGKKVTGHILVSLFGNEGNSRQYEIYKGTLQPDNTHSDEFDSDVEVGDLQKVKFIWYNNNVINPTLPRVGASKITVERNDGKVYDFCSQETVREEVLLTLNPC
Procedure: (§1) Preparation of test samples: Structures #2-#19 were dissolved in 1 mL DMSO to obtain a 10 mM stock solution, and were vortexed to dissolution and stored at 4° C. The various concentration of working samples were prepared in 0.2 M phosphate buffer, pH-8.0. This sample was used as test sample for all further assays.
Lipase assay: Lipase assay was performed by method described by Winkler and Stuckmann, 1979, with modification. (Winkler, U. K. & Stuckmann, M. Glycogen, hyaluronate, and some other polysaccharides greatly enhance the formation of exolipase by Serratia marcescens. J. Bacteriol. 138: 663-670 (1979)) Assay was designed, using a 96-well format. The substrate used in this assay was p-nitro phenol palmitate (Sigma, Cat No-N-2752). 4.5 mg of p-nitro phenol palmitate was dissolved in 200 μl of N,N-dimethyl formamide (Sigma, Cat No, D-4551) and volume made up to 10 ml with 0.1 M pH 8.0 phosphate buffer. Pancreatic Lipase (Sigma, Cat No. L-3126) sample was prepared by dissolving the enzyme in 0.1M phosphate buffer at a concentration of 5 mg/ml. The reaction mixture consisted of 150 μl substrate solution; 40 μl phosphate buffer (pH 8.0, 0.2 M) and 10 μl lipase solution. The reaction mixture was incubated at 37° C. and optical density was measured at 405 nm after incubation. Enzyme activity was presented in the form of international unit (IU).
Lipase activity: One enzyme unit of lipase is defined as that quantity releasing 1 nm of free phenol from the substrate (p-nitro phenol palmitate) per min per ml under the standard assay condition (Winkler and Stuckmann, 1979; Yadav R P, Saxena R K, Gupta R. Davidson W S., Purification and characterization of a region-specific lipase from Aspergillus terreus. Biotechnol. Appl. Biochem. (1998) 28, (243-249)). It is derived from standard graph of p-nitro phenol (Sigma, 104-8).
(§2) Lipase inhibition assay: Enzyme inhibition assay was performed in a dose dependent manner. The concentration of the synthetic analogs checked were 100 μM & 200 μM. The assay was similar to assay described above except 40 μl of test sample was used instead of phosphate buffer in control. Optical density was measured at 0 hr and following incubation at 37° C.
Enzyme Inhibition: Enzyme inhibition was presented in the term of relative activity and percentage inhibition simply on the basis of change in international unit (IU).
as §1, with “Synthetic analogues” for “Structures #2-#19”, “ml” for “mL”, “solution. The samples” for “solution, and”, “O.2” for “0.2”
as §2, with “6.25 μM-200” for “100 μM & 200”, “C. The enzyme activity was measured in terms of international unit (IU).” for “C.”
Lipase activity: One enzyme unit of lipase is defined as that quantity releasing 1 nm of free phenol from the substrate (p-nitro phenol palmitate)/min per ml under standard assay conditions. It is derived from standard graph of p-nitro phenol (Sigma, 104-8)
Percent Inhibition: Enzyme inhibition was presented in the term of % inhibition simply on the basis of change in international unit (IU).
The value of IC50 was derived from linear regression. The value derived is based on interpolated data.

SMILES | IC50 [1] [µM] | inhibition at 100 µM [1] [%] | inhibition at 200 µM [1] [%] | melting point [°C]
CCCCCCCCCCCC1=C(OC(=O)c2ccc(F)cc2)C(=O)C=C(OC(=O)c2ccc(F)cc2)C1=O [Structure #16, 2,5-bis-(4-fluorophenylcarbonyloxy)-3-undecyl-1,4-benzoquinone] | 72.8 | 89.5 | 100 | 
CCCCCCCCCCCC1=C(OC(=O)c2ccccc2)C(=O)C=C(OC(=O)c2ccccc2)C1=O (as salt: Na) [Structure #15, 2,5-bis-(phenylcarbonyloxy)-3-undecyl-1,4-benzoquinone] |  |  |  | 98.2 to 99.6
CCCCCCCCCCCC1=C(OC(=O)c2ccccc2[N+](=O)[O-])C(=O)C=C(OC(=O)c2ccccc2[N+](=O)[O-])C1=O [Structure #14, 2,5-bis-(2-nitrophenylcarbonyloxy)-3-undecyl-1,4-benzoquinone] | 45.3 | 65.9 | 61.3 | 
CCCCCCCCCCCC1=C(OC(=O)c2cccc(Cl)c2)C(=O)C=C(OC(=O)c2cccc(Cl)c2)C1=O [Structure #7, 2,5-bis-(3-chlorophenylcarbonyloxy)-3-undecyl-1,4-benzoquinone] | 16.7 | 100 | 100 | 
CCCCCCCCCCCC1=C(OC(=O)c2cccc(C)c2)C(=O)C=C(OC(=O)c2cccc(C)c2)C1=O [Structure #13, 2,5-bis-(3-methylphenylcarbonyloxy)-3-undecyl-1,4-benzoquinone] | 44.7 | 100 | 100 | 
CCCCCCCCCCCC1=C(OC(=O)c2ccc(C)cc2)C(=O)C=C(OC(=O)c2ccc(C)cc2)C1=O (as salt: Na) [Structure #12, 2,5-bis-(4-methylphenylcarbonyloxy)-3-undecyl-1,4-benzoquinone] |  |  |  | 94.8 to 96
CCCCCCCCCCCC1=C(OC(=O)c2ccc(C(C)(C)C)cc2)C(=O)C=C(OC(=O)c2ccc(C(C)(C)C)cc2)C1=O [Structure #3, 2,5-bis-(4-tert-butylphenylcarbonyloxy)-3-undecyl-1,4-benzoquinone] | < 6.25 | 99.5 | 99.2 | 
CCCCCCCCCCCC1=C(OC(=O)c2ccccc2Br)C(=O)C=C(OC(=O)c2ccccc2Br)C1=O [Structure #5, 2,5-bis-(2-bromophenylcarbonyloxy)-3-undecyl-1,4-benzoquinone] | 11 | 100 | 100 | 
CCCCCCCCCCCC1=C(OC(=O)c2cccc(Br)c2)C(=O)C=C(OC(=O)c2cccc(Br)c2)C1=O [Structure #6, 2,5-bis-(3-bromophenylcarbonyloxy)-3-undecyl-1,4-benzoquinone] | 13.5 | 100 | 100 | 
CCCCCCCCCCCC1=C(OC(=O)c2ccccc2I)C(=O)C=C(OC(=O)c2ccccc2I)C1=O [Structure #19, 2,5-bis-(2-iodophenylcarbonyloxy)-3-undecyl-1,4-benzoquinone] | 129 | 29.2 | 100 | 
CCCCCCCCCCCC1=C(OC(=O)c2cccc(OC)c2)C(=O)C=C(OC(=O)c2cccc(OC)c2)C1=O [Structure #17, 2,5-bis-(3-methoxyphenylcarbonyloxy)-3-undecyl-1,4-benzoquinone] | 81.9 | 78.3 | 96.5 | 

Other lines, results leading:

IC50 [1] [µM] | inhibition at 100 µM [1] [%] | inhibition at 200 µM [1] [%] | melting point [°C] | SMILES
 |  |  | 56.2 to 57.8 | CCCCCCCCCCCC1=C(OC(=O)c2ccccc2Cl)C(=O)C=C(OC(=O)c2ccccc2Cl)C1=O (as salt: Na) [Structure #8, 2,5-bis-(2-chlorophenylcarbonyloxy)-3-undecyl-1,4-benzoquinone]
 |  |  | 64.2 to 67.6 | CCCCCCCCCCCC1=C(OC(=O)c2ccccc2I)C(=O)C=C(OC(=O)c2ccccc2I)C1=O (as salt: Na) [Structure #19, 2,5-bis-(2-iodophenylcarbonyloxy)-3-undecyl-1,4-benzoquinone]
22.8 | 98.4 | 100 |  | CCCCCCCCCCCC1=C(OC(=O)c2ccc(Cl)cc2)C(=O)C=C(OC(=O)c2ccc(Cl)cc2)C1=O [Structure #9, 2,5-bis-(4-chlorophenylcarbonyloxy)-3-undecyl-1,4-benzoquinone]
 |  |  | 99.2 to 100.5 | CCCCCCCCCCCC1=C(OC(=O)c2ccc(OC)cc2)C(=O)C=C(OC(=O)c2ccc(OC)cc2)C1=O (as salt: Na) [Structure #18, 2,5-bis-(4-methoxyphenylcarbonyloxy)-3-undecyl-1,4-benzoquinone]
20.6 | 100 | 100 |  | CCCCCCCCCCCC1=C(OC(=O)c2ccccc2Cl)C(=O)C=C(OC(=O)c2ccccc2Cl)C1=O [Structure #8, 2,5-bis-(2-chlorophenylcarbonyloxy)-3-undecyl-1,4-benzoquinone]
 |  |  | 80.4 to 81.7 | CCCCCCCCCCCC1=C(OC(=O)c2cccc(C)c2)C(=O)C=C(OC(=O)c2cccc(C)c2)C1=O (as salt: Na) [Structure #13, 2,5-bis-(3-methylphenylcarbonyloxy)-3-undecyl-1,4-benzoquinone]
94.2 | 55.6 | 94.1 |  | CCCCCCCCCCCC1=C(OC(=O)c2ccc(OC)cc2)C(=O)C=C(OC(=O)c2ccc(OC)cc2)C1=O [Structure #18, 2,5-bis-(4-methoxyphenylcarbonyloxy)-3-undecyl-1,4-benzoquinone]
 |  |  | 102.8 to 104.6 | CCCCCCCCCCCC1=C(OC(=O)c2cccc(Cl)c2)C(=O)C=C(OC(=O)c2cccc(Cl)c2)C1=O (as salt: Na) [Structure #7, 2,5-bis-(3-chlorophenylcarbonyloxy)-3-undecyl-1,4-benzoquinone]
 |  |  | 110.2 to 112 | CCCCCCCCCCCC1=C(OC(=O)c2ccc(Cl)cc2)C(=O)C=C(OC(=O)c2ccc(Cl)cc2)C1=O (as salt: Na) [Structure #9, 2,5-bis-(4-chlorophenylcarbonyloxy)-3-undecyl-1,4-benzoquinone]
41.3 | 88.5 | 99.1 |  | CCCCCCCCCCCC1=C(OC(=O)c2ccc(C)cc2)C(=O)C=C(OC(=O)c2ccc(C)cc2)C1=O [Structure #12, 2,5-bis-(4-methylphenylcarbonyloxy)-3-undecyl-1,4-benzoquinone]
55.6 | 100 | 100 |  | CCCCCCCCCCCC1=C(OC(=O)c2ccccc2)C(=O)C=C(OC(=O)c2ccccc2)C1=O [Structure #15, 2,5-bis-(phenylcarbonyloxy)-3-undecyl-1,4-benzoquinone]
 | 67.9 | 69.5 |  | CCCCCCCCCCCC1=C(O)C(=O)C=C(O)C1=O [Structure #20, 2,5-Dihydroxy-3-undecyl-p-benzoquinone, reference compound]
23.7 | 87.5 | 97 |  | CCCCCCCCCCCC1=C(OC(=O)c2ccc(Br)cc2)C(=O)C=C(OC(=O)c2ccc(Br)cc2)C1=O [Structure #10, 2,5-bis-(4-bromophenylcarbonyloxy)-3-undecyl-1,4-benzoquinone]
